In PMC11224556, “Next-generation of BBQ analogues that selectively target breast cancer” (Frontiers in Chemistry, 2024):

How the values were obtained:
Format in all cases: cell-based, human
[1] = tested on: A2780 (ovary) cells; assay: MTT growth inhibition assay (72 h)
Description: (§1) Each BBQ analogue, 2-14 was screened for their growth inhibition ability (GI50) in a broad panel of cancer cell lines and a non-cancer breast cell line (MCF10A), using the MTT growth inhibition assay (Table 1) ([Baker et al., 2021b]). The cancer panel comprised HT29 (colorectal), U87 (brain), SJ-G2 (brain), A2780 (ovary), Du145 (prostate), BE2-C (neuronal), MIA (pancreas), H460 (lung, ER+), A431 (vulva, ER+ (estrogen receptor positive)), and a wide selection of breast cancer cell lines with varying receptor status including MCF-7 (ER + luminal A), T47D (ER/PR+ (progesterone receptor positive)luminal A), ZR-75-1 (ER/PR + luminal A), BT-474 (ER/PR/HER2+ luminal B), SKBR-3 (HER2+), MDA-MB-468, BT20, and MDA-MB-231 (basal, triple negative (TN) for ER, PR, and HER2).
(§2) Stock solutions were prepared as follows and stored as 20 mM DMSO solutions at −20 °C. All cell lines were cultured in a humidified atmosphere 5% CO2 at 37 °C. The cancer cell lines were maintained in Dulbecco’s modified Eagle’s medium (DMEM) (Trace Biosciences, Australia) supplemented with 10% foetal bovine serum (FBS), 10 mM sodium bicarbonate, penicillin (100 IU/mL), streptomycin (100 μg/mL), and glutamine (4 mM). The non-cancer MCF10A cell line was cultured in DMEM:F12 (1:1) cell culture media, 5% heat inactivated horse serum, supplemented with penicillin (50 IU/mL), streptomycin (50 μg/mL), 20 mM Hepes, L-glutamine (2 mM), epidermal growth factor (20 ng/mL), hydrocortisone (500 ng/mL), cholera toxin (100 ng/mL), and insulin (10 μg/mL). The AhR reporter cell line HT29-Lucia™ (Invivogen, United States) was maintained in DMEM supplemented with 10% heat inactivated FBS, L-glutamine (2 mM), penicillin (100 IU/mL), streptomycin (100 μg/mL), 100 μg/mL Normocin™, and 100 μg/mL of the selective antibiotic Zeocin™. All cell lines were purchased from the American Type Culture Collection (ATCC), except for A2780 and A431 which were from the European Collection of Authenticated Cell Cultures (ECACC), and SJ-G2 cell line which was from Dr Mary Danks, St Jude Children’s Research hospital, Memphis, TN.
(§3) Cells in logarithmic growth were transferred to 96-well plates. Cytotoxicity was determined by plating cells in duplicate in 100 μL medium at a density of 2,500–4,000 cells/well in 96 well plates. On day 0, (24 h after plating) when the cells were in logarithmic growth 100 μL medium with or without the test agent was added to each well. After 72 h drug exposure growth inhibitory effects were evaluated using the MTT (3-[4,5-dimethylthiazol-2-yl]-2,5-diphenyltetrazolium bromide) assay with absorbance read at 540 nm. An eight-point dose response curve was produced, using MS Excel software. From these dose-response curves, the GI50 value was calculated, representing the drug concentration at which cell growth is 50% inhibited based on the difference between the optical density values on day 0 and those at the end of drug exposure ([Bradshaw et al., 2008]; [Zhang et al., 2009]). Each data point was conducted in duplicate and the mean ± S.E.M. calculated from four to five replicates (n = 4 or 5), which were performed on separate occasions and separate cell line passages. Where shown, significant test results were determined using T-test analysis at p < 0.01 and p < 0.05 with a two tail distribution.

[2] = tested on: A431 (vulva/skin) cells; assay: MTT growth inhibition assay (72 h); conditions: A431, Skin (ER)
Description: as §1, §2, §3

[3] = tested on: BE2-C (neuronal) cells; assay: MTT growth inhibition assay (72 h); conditions: Neuron
Description: as §1, §2, §3

[4] = tested on: BT20 breast cancer cells; assay: MTT growth inhibition assay (72 h); conditions: BT20, Breast (TN)
Description: as §1, §2, §3

[5] = tested on: BT474 breast cancer cells; assay: MTT growth inhibition assay (72 h); conditions: BT474, Breast (ER/PR/HER2)
Description: as §1, §2, §3

[6] = tested on: Du145 (prostate) cells; assay: MTT growth inhibition assay (72 h)
Description: as §1, §2, §3

[7] = tested on: H460 (lung) cells; assay: MTT growth inhibition assay (72 h); conditions: H460, Lung (ER)
Description: as §1, §2, §3

[8] = tested on: HT29 (colorectal) cells; assay: MTT growth inhibition assay (72 h); conditions: HT29, Colon
Description: as §1, §2, §3

[9] = tested on: MCF-7 breast cancer cells; assay: MTT growth inhibition assay (72 h); conditions: MCF-7, Breast (ER)
Description: as §1, §2, §3

[10] = tested on: MCF10A normal breast cells; assay: MTT growth inhibition assay (72 h)
Description: as §1, §2, §3

[11] = tested on: MDA-MB-231 breast cancer cells; assay: MTT growth inhibition assay (72 h); conditions: MDA-MB-231, Breast (TN)
Description: as §1, §2, §3

[12] = tested on: MDA-MB-468 breast cancer cells; assay: MTT growth inhibition assay (72 h); conditions: MDA-MB-468, Breast (TN)
Description: as §1, §2, §3

[13] = tested on: MIA (pancreas) cells; assay: MTT growth inhibition assay (72 h)
Description: as §1, §2, §3

[14] = tested on: SJ-G2 (brain) cells; assay: MTT growth inhibition assay (72 h); conditions: SJ-G2, Brain (GBM)
Description: as §1, §2, §3

[15] = tested on: SKBR3 breast cancer cells; assay: MTT growth inhibition assay (72 h); conditions: SKBR3, Breast (HER2)
Description: as §1, §2, §3

[16] = tested on: U87 (brain) cells; assay: MTT growth inhibition assay (72 h); conditions: U87, Brain (GBM)
Description: as §1, §2, §3

[17] = tested on: ZR-75-1 breast cancer cells; assay: MTT growth inhibition assay (72 h); conditions: ZR-75-1, Breast (ER/PR)
Description: as §1, §2, §3

[18] = tested on: broad panel of cancer cell lines and non-cancer breast cell line MCF10A; assay: MTT growth inhibition: GI50 ranges and selectivity across the cell line panel; conditions: across the cell lines examined (Table 1)
Description: as §1, §2, §3

[19] = tested on: T47D breast cancer cells; assay: MTT growth inhibition assay (72 h); conditions: Breast (ER/PR)
Description: as §1, §2, §3

Substance	GI50 [1]	GI50 [2]	GI50 [3]	GI50 [4]	GI50 [5]	GI50 [6]	GI50 [7]	GI50 [8]	GI50 [9]	GI50 [10]	GI50 [11]	GI50 [12]	GI50 [13]	GI50 [14]	GI50 [15]	GI50 [16]	GI50 [17]	fold more potent than head group substituted analogues 3, 4, 6, 7, 8 and 9 [18]	GI50 [19]
3-Nitro-7H-benzo[de]benzo[4,5]imidazo[2,1-a]isoquinolin-7-one (11a) and 4-nitro-7H-benzo[de]benzo[4,5]imidazo[2,1-a]isoquinolin-7-one (11b) [Compound 11]	0.01 ± 0.003 µM	88 ± 31 nM	0.74 ± 0.13 µM	8.4 ± 4 nM	0.15 ± 0.053 µM	0.32 ± 0.049 µM	0.00019 ± 0.0001 µM	0.3 ± 0.11 µM	6.5 ± 3.8 nM	3.1 ± 2 nM	2.1 ± 0.29 µM	1.5 ± 0.8 nM	1.4 ± 0.45 µM	0.61 ± 0.14 µM	36 ± 6 nM	0.55 ± 0.11 µM	2.7 ± 2.2 nM	> 10 fold	–
7-Oxo-7H-benzo[de]benzo[4,5]imidazo[2,1-a]isoquinoline-10-carbonitrile (9a) and 7-oxo-7H-benzo[de]benzo[4,5]imidazo[2,1-a]isoquinoline-11-carbonitrile (9b) [Compound 9]	7 ± 0.64 µM	1100 ± 100 nM	> 50 µM	9300 ± 8400 nM	> 50 µM	45 ± 1.7 µM	41 ± 5.9 µM	44 ± 6.3 µM	25000 ± 8300 nM	7800 ± 1620 nM	38 ± 6 µM	74 ± 21 nM	41 ± 9.5 µM	26 ± 3.8 µM	270 ± 18 nM	43 ± 4 µM	89 ± 40 nM	–	4200 ± 730 nM
9-Methyl-7H-benzo[de]benzo[4,5]imidazo[2,1-a]isoquinolin-7-one (8a) and 12-methyl-7H-benzo[de]benzo[4,5]imidazo[2,1-a]isoquinolin-7-one (8b) [Compound 8]	11 ± 0.58 µM	560 ± 140 nM	15 ± 10 µM	1400 ± 800 nM	4.6 ± 2.7 µM	38 ± 6.9 µM	27 ± 6.7 µM	3.7 ± 0.69 µM	2800 ± 610 nM	2000 ± 1300 nM	8.2 ± 3.3 µM	56 ± 24 nM	20 ± 10 µM	24 ± 8.4 µM	270 ± 27 nM	38 ± 2.5 µM	590 ± 380 nM	–	800 ± 110 nM
